Data from ChEMBL document CHEMBL1201862, “PubChem BioAssay data set” (2004).
Activity calls are given as the source filed them.

Key:
[1] = Trypanosoma cruzi growth suppression in host cells – NIH3T3 host cells, beta-gal luminescence, confirmation (AID 2044); format: functional, cell-based;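 also: intracellular parasites grown in NIH/3T3 mouse fibroblasts as host cells; luminescent beta-galactosidase reporter signal from transgenic T. cruzi replicating inside host cells; inhibitors lower the luminescence signal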
Protein RecA = target: T1, Protein RecA (Mycobacterium tuberculosis, UniProt P9WHJ3); experiment: Fluorescence Cell-Free Homogeneous Dose Retest to Identify Inhibitors of RecA-Intein Splicing Activity. [Related pubchem assays (depositor defined):AID2097, AID2223, AID489010, AID492950]; format: functional
T1 sequence (P9WHJ3 whole entry): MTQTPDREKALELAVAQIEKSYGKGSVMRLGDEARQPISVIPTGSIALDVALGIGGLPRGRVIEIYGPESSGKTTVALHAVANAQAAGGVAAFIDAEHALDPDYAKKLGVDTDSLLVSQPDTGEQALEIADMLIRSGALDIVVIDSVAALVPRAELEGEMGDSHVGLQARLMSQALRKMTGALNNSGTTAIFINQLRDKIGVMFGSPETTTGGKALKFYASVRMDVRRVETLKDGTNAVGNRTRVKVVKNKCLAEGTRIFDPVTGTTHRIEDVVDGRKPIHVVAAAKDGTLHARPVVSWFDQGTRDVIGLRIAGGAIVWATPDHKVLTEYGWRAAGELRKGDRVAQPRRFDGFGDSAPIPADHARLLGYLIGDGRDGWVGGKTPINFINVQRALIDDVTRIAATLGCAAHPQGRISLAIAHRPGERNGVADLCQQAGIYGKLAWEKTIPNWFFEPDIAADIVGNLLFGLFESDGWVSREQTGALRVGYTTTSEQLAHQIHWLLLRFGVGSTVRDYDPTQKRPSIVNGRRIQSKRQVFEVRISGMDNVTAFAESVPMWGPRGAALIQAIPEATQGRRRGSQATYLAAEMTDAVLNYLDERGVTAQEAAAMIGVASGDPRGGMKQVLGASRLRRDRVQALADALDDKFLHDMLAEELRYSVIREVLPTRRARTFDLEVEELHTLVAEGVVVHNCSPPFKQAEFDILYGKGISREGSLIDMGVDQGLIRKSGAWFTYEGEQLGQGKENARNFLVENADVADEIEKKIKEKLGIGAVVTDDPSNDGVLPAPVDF

[2] = NIH3T3 cell viability loss – ATP luminescence, mouse fibroblasts, counter-screen, dose response (AID 2010); format: functional, cell-based;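 also: cells exposed to compound for about 90 hours before reading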
[3] = target: T2, Replicative DNA helicase DnaB (Mycobacterium tuberculosis, UniProt P9WMR3); experiment: DnaB intein splicing inhibitors, dose response, biochemical, cell-free fluorescence (AID 449749); format: functional
T2 sequence (P9WMR3 whole entry): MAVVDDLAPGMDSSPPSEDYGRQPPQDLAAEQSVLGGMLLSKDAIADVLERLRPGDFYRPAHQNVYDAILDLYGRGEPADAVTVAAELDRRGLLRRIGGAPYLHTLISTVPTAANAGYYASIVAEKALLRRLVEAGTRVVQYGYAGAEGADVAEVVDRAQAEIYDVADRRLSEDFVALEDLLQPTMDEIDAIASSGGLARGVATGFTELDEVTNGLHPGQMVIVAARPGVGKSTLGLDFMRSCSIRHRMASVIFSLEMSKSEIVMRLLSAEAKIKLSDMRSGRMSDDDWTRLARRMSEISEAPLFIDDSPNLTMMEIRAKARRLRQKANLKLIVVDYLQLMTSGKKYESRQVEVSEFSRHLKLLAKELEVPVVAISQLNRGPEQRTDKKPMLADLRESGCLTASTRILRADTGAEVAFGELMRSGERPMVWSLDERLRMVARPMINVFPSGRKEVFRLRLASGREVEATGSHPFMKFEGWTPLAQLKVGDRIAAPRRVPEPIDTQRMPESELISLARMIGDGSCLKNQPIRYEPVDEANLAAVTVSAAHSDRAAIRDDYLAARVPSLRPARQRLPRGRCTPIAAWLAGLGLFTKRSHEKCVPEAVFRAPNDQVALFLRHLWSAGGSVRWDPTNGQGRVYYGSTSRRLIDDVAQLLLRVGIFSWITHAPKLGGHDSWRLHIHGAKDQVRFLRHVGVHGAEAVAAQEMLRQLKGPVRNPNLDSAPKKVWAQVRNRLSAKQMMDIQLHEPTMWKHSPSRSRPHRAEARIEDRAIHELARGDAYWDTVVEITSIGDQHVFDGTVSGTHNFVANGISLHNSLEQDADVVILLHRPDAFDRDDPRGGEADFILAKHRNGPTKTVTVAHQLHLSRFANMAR

[4] = Luminescence Cell-Based Dose Retest to Confirm Inhibitors of Cancer Stem Cells. [Related pubchem assays (depositor defined):AID2717, AID2721]; format: functional; conditions: Homo sapiens
[5] = fluconazole-exposed Candida albicans growth modulators – fluorescence, retest, confirmation (AID 2467); format: functional, cell-based
[6] = NIH-3T3 fibroblast cytotoxicity, dose response, cytotoxicity control, cell-based, fluorescence, Alamar Blue, secondary assay (AID 2327); format: functional;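 also: NIH-3T3 mouse fibroblasts cultured with fluconazole at 8 µg/mL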
[7] = tested on: Streptococcus sp. 'group A'; experiment: Streptococcus pyogenes SK(-)GAS viability under kanamycin – luminescence, BacTiterGlo, confirmation, counter-screen for streptokinase expression inhibitor project, dose response (AID 1900); format: functional, organism-based
Streptococcus = experiment: GAS UMAA2166 growth inhibition – luminescence, BacTiterGlo, counter-screen for streptokinase expression inhibitor project, dose response (AID 1915); format: functional, organism-based;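 also: potency for reduction of bacterial viability or growth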
Streptokinase A = target: T3, Streptokinase A (Streptococcus pyogenes serotype M1, UniProt P10520); experiment: viability-normalized secreted streptokinase activity reduction – plasminogen activation absorbance, OD405, dose response (AID 1914); format: functional, Streptococcus pyogenes M1 GAS;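 also: secreted streptokinase activity via plasminogen activation per viability signal from cell pellet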
T3 sequence (P10520 whole entry): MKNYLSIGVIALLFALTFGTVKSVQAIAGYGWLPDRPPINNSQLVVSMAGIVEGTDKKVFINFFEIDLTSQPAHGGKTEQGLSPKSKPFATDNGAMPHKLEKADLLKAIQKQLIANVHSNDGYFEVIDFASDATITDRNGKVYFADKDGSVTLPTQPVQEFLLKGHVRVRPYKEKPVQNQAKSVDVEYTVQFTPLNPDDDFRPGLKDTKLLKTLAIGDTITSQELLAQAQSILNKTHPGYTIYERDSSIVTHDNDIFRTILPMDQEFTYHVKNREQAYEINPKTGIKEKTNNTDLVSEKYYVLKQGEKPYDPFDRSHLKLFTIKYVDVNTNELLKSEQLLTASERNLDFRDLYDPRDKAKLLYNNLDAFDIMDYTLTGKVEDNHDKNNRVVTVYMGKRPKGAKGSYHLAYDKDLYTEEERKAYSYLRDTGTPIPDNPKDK

Cytochrome P450 2D6 = Cytochrome P450 2D6 (Homo sapiens, UniProt P10635);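 also: CYP2D6 member of a cytochrome P450 panel assay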
INS1 = experiment: INS-1E survival protection against cytokine death – cell-based, luminescence, retest, dose response (AID 449756); format: functional; conditions: Rattus norvegicus;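 also: cell death triggered by IL-1 beta plus TNF-alpha plus IFN-gamma mixture; protective hits raise ATP signal compared with cytokine alone wells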
[8] = microbe, parasite or virus in culture; format: functional; conditions: Mycobacterium tuberculosis
Protein skinhead-1 = target: T4, Protein skinhead-1 (Caenorhabditis elegans, UniProt P34707); format: functional
T4 sequence (P34707 whole entry): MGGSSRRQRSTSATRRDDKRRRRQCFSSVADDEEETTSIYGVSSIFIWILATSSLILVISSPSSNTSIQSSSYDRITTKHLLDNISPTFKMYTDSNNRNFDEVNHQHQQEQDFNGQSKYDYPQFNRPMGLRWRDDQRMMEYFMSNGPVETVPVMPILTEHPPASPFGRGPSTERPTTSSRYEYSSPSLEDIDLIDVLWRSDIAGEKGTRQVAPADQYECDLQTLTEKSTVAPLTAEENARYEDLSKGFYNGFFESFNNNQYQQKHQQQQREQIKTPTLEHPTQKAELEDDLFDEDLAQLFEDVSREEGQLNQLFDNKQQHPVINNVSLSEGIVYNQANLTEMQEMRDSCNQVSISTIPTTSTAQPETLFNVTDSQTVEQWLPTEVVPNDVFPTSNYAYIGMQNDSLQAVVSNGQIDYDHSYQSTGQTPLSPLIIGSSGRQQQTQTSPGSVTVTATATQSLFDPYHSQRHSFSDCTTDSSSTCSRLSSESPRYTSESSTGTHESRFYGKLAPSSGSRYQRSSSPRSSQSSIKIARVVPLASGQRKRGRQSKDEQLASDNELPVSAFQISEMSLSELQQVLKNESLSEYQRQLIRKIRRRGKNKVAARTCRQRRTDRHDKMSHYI

cells = format: functional
Cytochrome P450 2C9 = Cytochrome P450 2C9 (Homo sapiens, UniProt P11712)
Cytochrome P450 2C19 = Cytochrome P450 2C19 (Homo sapiens, UniProt P33261); experiment: Cytochrome panel assay with activity outcomes. Panel member name: p450-cyp2c19 Compounds with AC50 equal or less than 10 uM are considered active; format: functional; conditions: read-out: AC50
Sequence of Cytochrome P450 2C19 (P33261 whole entry): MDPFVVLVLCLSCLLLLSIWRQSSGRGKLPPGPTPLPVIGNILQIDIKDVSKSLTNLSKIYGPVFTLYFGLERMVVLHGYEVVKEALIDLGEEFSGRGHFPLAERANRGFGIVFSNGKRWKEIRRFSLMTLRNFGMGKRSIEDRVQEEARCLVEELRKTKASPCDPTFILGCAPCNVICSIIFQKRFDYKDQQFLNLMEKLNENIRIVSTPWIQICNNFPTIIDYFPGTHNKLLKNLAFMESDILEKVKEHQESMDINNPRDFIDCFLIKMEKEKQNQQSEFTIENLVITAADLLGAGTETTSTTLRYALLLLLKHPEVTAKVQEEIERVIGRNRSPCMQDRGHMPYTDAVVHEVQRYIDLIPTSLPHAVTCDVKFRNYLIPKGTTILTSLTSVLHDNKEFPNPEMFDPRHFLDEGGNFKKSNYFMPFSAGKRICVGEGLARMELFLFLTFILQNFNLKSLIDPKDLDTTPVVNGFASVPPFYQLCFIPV

Sequence of Cytochrome P450 2D6 (P10635 whole entry): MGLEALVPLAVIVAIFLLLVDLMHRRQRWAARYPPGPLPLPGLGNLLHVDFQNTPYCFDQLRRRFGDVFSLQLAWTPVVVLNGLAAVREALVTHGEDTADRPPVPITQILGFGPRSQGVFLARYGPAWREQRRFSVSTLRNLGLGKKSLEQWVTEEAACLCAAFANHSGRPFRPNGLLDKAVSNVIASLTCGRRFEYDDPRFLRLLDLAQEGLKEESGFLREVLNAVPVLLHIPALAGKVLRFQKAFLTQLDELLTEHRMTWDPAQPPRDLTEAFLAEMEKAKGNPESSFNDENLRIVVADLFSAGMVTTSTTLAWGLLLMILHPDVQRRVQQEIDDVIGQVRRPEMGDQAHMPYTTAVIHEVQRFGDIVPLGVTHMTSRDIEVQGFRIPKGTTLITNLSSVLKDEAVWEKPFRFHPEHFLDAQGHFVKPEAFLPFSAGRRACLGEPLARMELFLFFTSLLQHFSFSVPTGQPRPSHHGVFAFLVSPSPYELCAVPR
Sequence of Cytochrome P450 2C9 (P11712 whole entry): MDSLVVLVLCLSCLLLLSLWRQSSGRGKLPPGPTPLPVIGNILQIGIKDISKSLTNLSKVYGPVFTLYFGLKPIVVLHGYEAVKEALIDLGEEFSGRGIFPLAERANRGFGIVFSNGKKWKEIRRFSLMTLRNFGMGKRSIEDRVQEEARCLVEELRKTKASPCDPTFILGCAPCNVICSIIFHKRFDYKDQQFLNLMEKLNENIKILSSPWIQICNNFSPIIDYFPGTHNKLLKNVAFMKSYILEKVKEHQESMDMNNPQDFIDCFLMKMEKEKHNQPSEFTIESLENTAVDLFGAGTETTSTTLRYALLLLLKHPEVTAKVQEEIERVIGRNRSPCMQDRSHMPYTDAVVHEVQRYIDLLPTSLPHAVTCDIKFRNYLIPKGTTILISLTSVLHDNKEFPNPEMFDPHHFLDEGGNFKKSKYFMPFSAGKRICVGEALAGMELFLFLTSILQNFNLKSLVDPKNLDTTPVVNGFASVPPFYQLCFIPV

SMILES: Cn1c(-c2ccccc2)c(C(=O)CCl)c2ccccc21
- EC50 [1]: 0.998 µM (active)
- EC50 (Protein RecA): 3.04 µM (active)
- EC50 [2]: 2.44 µM (active)
- AC50 [3]: 6.94 µM (active)

SMILES: CCOc1cc(/C=C2/SC(=S)N(Cc3ccccc3)C2=O)ccc1O
- AC50 [4]: 1.42 µM (active)
- EC50 (Protein RecA): 3.96 µM (active)
- AC50 [3]: 38.9 µM (active)

SMILES: Cc1cccc(N2CCN(c3nc(C)cc(C)c3C#N)CC2C)c1 (stereo not given)
- EC50 [1]: 3.63 µM (active)
- EC50 [5]: > 38 µM (not active)
- EC50 [6]: 41.3 µM (active)
- EC50 [2]: > 60 µM (not active)

SMILES: O=C(NC(=S)N(Cc1ccccc1)Cc1ccccc1)c1ccccc1F
- EC50 [7]: 1.08 µM (active)
- EC50 (Streptococcus): 9.16 µM (active)
- EC50 (Streptokinase A): > 150 µM (not active)
- AC50 (Cytochrome P450 2D6): 0.2 µM (inconclusive)

SMILES: O=C(NCc1ccccc1)C1=C[C@@H](c2csc3ccccc23)C[C@@H](OCc2ccc(CO)cc2)O1
- AC50 (INS1): 2.88 µM (active)

SMILES: COC(=O)c1cc(NC(=O)c2cc(-c3ccccc3Cl)oc2C(F)(F)F)ccc1N1CCOCC1
- AC50 [4]: 4.57 µM (active)

SMILES: C[C@@H]1O[C@@H](O[C@H]2C[C@@H](O)[C@]3(CO)[C@H]4[C@H](O)C[C@]5(C)[C@@H](C6=CC(=O)OC6)CC[C@]5(O)[C@@H]4CC[C@]3(O)C2)[C@H](O)[C@H](O)[C@H]1O
- AC50 [4]: < 0.16 µM (active)

SMILES: CC1CCN(C(=S)NC(=O)c2cccs2)CC1
- CC50 [8]: > 40 µM (active)

SMILES: CN(CC(=O)Nc1cccc(F)c1)C(=O)CC1CC2CCC1C2 (stereo not given)
- IC50 (Protein skinhead-1): > 100 µM (inactive)

SMILES: NCCCn1c(C(=O)c2ccc(Cl)cc2)c2ccc([N+](=O)[O-])cc2[n+]1[O-]
- CC50 [8]: 35.4 µM (active)

SMILES: COC(=O)COc1ccc(-c2ccccc2)cc1C=O
- IC50 (cells): 12.1 µM (active)

SMILES: CCn1c(C)c(C)c2cc(C(=O)N3CCN(c4ccccc4)CC3)ccc21
- IC50 (Protein skinhead-1): > 100 µM (inactive)

SMILES: COc1ccc(-c2cccc([C@H]3[C@@H]4C=CCC[C@@]4(C)C(=O)N3Cc3ccccc3)c2)cc1
- AC50 [4]: 5.36 µM (active)

SMILES: COC(=O)c1c2c(nc3ccccc13)CCC2
- IC50 (Protein skinhead-1): > 100 µM (inactive)

SMILES: Cc1cc(C(=O)c2ccc(Cl)cc2)c(NC(=O)CCl)s1
- EC50 (Protein RecA): 0.481 µM (active)
- AC50 [3]: 24.4 µM (active)

SMILES: CCOC(=O)c1cc(CC)sc1NC(=O)c1cc(OCC)c(OCC)c(OCC)c1
- AC50 (Cytochrome P450 2C9): 20 µM (inconclusive)
- AC50 (Cytochrome P450 2C19): 25.1 µM (inconclusive)
- CC50 [8]: > 40 µM (active)

SMILES: Cc1cccc(C)c1OCC(=O)Nc1cccc(-c2nnc(-c3ccccc3)o2)c1
- CC50 [8]: 34.9 µM (active)

SMILES: CC(=O)Nc1ccc(SCC(=O)c2cc(C)n(-c3ccccc3)c2C)cc1
- AC50 [4]: 6.41 µM (active)

SMILES: COc1ccc(NC(=O)c2cc3ccccc3o2)cc1
- IC50 (cells): > 50 µM (active)

SMILES: CC(=O)c1c(C)[nH]c(C(=O)CN2CCN(S(=O)(=O)c3ccccc3)CC2)c1C
- AC50 (INS1): > 260 µM (inactive)

SMILES: CCCOc1ccc(OCCSc2ncccn2)cc1
- IC50 (Protein skinhead-1): 82.8 µM (inactive)

SMILES: Cc1ccc(OCCSc2nc(NC(C)C)nc(NC(C)C)n2)cc1
- AC50 [4]: 1.11 µM (active)
- EC50 [7]: 6.42 µM (active)
- EC50 (Streptococcus): 34.2 µM (active)
- EC50 (Streptokinase A): 13.9 µM (active)

SMILES: O=C(/C=C/c1ccccc1)Nn1c(-c2cccs2)nc2ccccc2c1=O
- EC50 [5]: 0.102 µM (active)
- EC50 [6]: > 160 µM (inactive)

SMILES: CC1=NN(c2ccccc2)C(=O)/C1=C\c1cn(C)c2ccccc12
- EC50 (Protein RecA): 6.5 µM (active)
- AC50 [3]: 17.7 µM (active)

SMILES: O=C(CCCCCNc1nc(S)nc2ccccc12)N1CCN(c2ccccn2)CC1
- CC50 [8]: > 40 µM (active)

SMILES: COc1ccc(C(=O)c2ccc(OC)cc2OC)cc1
- AC50 [4]: 13.6 µM (active)

SMILES: C=CCn1c(NC(=O)c2ccc(Br)o2)c(C(=O)OCC)sc1=S
- EC50 [5]: > 38 µM (not active)
- EC50 [6]: > 160 µM (inconclusive)

SMILES: c1nc2n(n1)C1=C(CCCC1)C1(CCCCC1)N2
- IC50 (cells): 10.1 µM (active)

SMILES: C=CC[C@@H](CC(=O)N(CCO)Cc1ccccc1)C(=O)N[C@H](COC(=O)[C@@H](CC=C)CC(=O)OC(C)(C)C)c1ccccc1
- AC50 (INS1): > 260 µM (inactive)

SMILES: O=C(C=Cc1ccco1)c1ccc2ccccc2c1
- IC50 (Protein skinhead-1): 9.38 µM (active)

SMILES: O=C(OCn1nnc2ccccc2c1=O)c1ccc(Br)o1
- IC50 (cells): 18.6 µM (active)

SMILES: CC(C)c1ccc(NC(=O)C(c2ccccc2)N(C)C(=O)CCc2c[nH]c3ccccc23)cc1 (stereo not given)
- AC50 [4]: 4 µM (active)

SMILES: Cc1ccc(-c2nnn(CC(=O)NCC3COCCO3)n2)o1 (stereo not given)
- IC50 (Protein skinhead-1): > 100 µM (inactive)

SMILES: O=[N+]([O-])c1ccc(Nc2nccc(Cl)n2)cc1
- IC50 (Protein skinhead-1): > 100 µM (inactive)

SMILES: Cc1ccn2c(NC3CCCCC3)c(-c3cccc(SC4CCCCC4)c3)nc2c1
- AC50 [4]: 2.65 µM (active)
